Reference: PubChem BioAssay AID330 (DTP/NCI, 2004)
“And” between values parts separate entries of the source, which are not always exact repeats. Identical values can stand only once. Inconclusive results and toxic doses are left out. Rule for the calls: active = survival T/C of 150% or more; inactive = T/C below 125% in these data.

Test system: P388 leukemia ip, CD2F1 mice, survival T/C
Assay: NCI In Vivo Anticancer Drug Screen. Data for tumor model P388 Leukemia (intraperitoneal) in CD2F1 (CDF1) mice
Conditions: endpoint: median survival time, higher = longer survival
How it was run: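 Mice carrying the transplanted tumor received test compound or vehicle. Survival was recorded in each group, and the value is the treated-group measurement divided by that of the vehicle-treated control group.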

[1] = dose: 60.0 mg/kg/injection, schedule: Q01DX005 (ip), vehicle: saline
[2] = dose: 120.0 mg/kg/injection, schedule: Q01DX005 (ip), vehicle: saline
[3] = dose: 240.0 mg/kg/injection, schedule: Q01DX005 (ip), vehicle: saline
[4] = dose: 12.5 mg/kg/injection, schedule: Q01DX005 (ip), vehicle: Klucel (hydroxypropylcellulose) (HPC)
[5] = dose: 25.0 mg/kg/injection, schedule: Q01DX005 (ip), vehicle: Klucel (hydroxypropylcellulose) (HPC)
[6] = dose: 50.0 mg/kg/injection, schedule: Q01DX005 (ip), vehicle: Klucel (hydroxypropylcellulose) (HPC)
[7] = dose: 100.0 mg/kg/injection, schedule: Q01DX005 (ip), vehicle: Klucel (hydroxypropylcellulose) (HPC)
[8] = dose: 200.0 mg/kg/injection, schedule: Q01DX005 (ip), vehicle: Klucel (hydroxypropylcellulose) (HPC)
[9] = dose: 50.0 mg/kg/injection, schedule: Q01DX005 (ip), vehicle: saline with Tween-80
[10] = dose: 25.0 mg/kg/injection, schedule: Q01DX009 (ip), vehicle: saline with Tween-80
[11] = dose: 50.0 mg/kg/injection, schedule: Q01DX009 (ip), vehicle: saline with Tween-80
[12] = dose: 100.0 mg/kg/injection, schedule: Q01DX009 (ip), vehicle: saline with Tween-80
[13] = dose: 200.0 mg/kg/injection, schedule: Q01DX009 (ip), vehicle: saline with Tween-80
[14] = dose: 6.25 mg/kg/injection, schedule: Q01DX005 (ip), vehicle: Klucel (hydroxypropylcellulose) (HPC)
[15] = dose: 50.0 mg/kg/injection, schedule: Q01DX005 (ip), vehicle: saline
[16] = dose: 100.0 mg/kg/injection, schedule: Q01DX005 (ip), vehicle: saline
[17] = dose: 60.0 mg/kg/injection, schedule: Q01DX005 (ip), vehicle: saline with Tween-80
[18] = dose: 120.0 mg/kg/injection, schedule: Q01DX005 (ip), vehicle: saline with Tween-80
[19] = dose: 240.0 mg/kg/injection, schedule: Q01DX005 (ip), vehicle: saline with Tween-80

Measured: T/C

CC(C)NC(=O)c1ccc(CN(O)Cc2ccc(C(=O)NC(C)C)cc2)cc1
inactive: dose: 25.0 mg/kg/injection, schedule: Q01DX009 (ip), vehicle: other 99 % of control | dose: 50.0 mg/kg/injection, schedule: Q01DX009 (ip), vehicle: other 99 % of control | dose: 100.0 mg/kg/injection, schedule: Q01DX009 (ip), vehicle: other 88 % of control | dose: 400.0 mg/kg/injection, schedule: Q01DX009 (ip), vehicle: other 97 % of control

CC(=O)N(C)c1ccc(Nc2cc(S(=O)(=O)O)c(N)c3c2C(=O)c2ccccc2C3=O)cc1
inactive: [1] 98 % of control | [2] 100 % of control | [3] 90 % of control

COC1CC2C=CC3C4OC2(/C(C)=C/C(C)C(C(C)O)OC1=O)C3C(O)C(C)C4OC(=O)c1ccc[nH]1 (configuration not stated)
inactive: [4] 104 % of control | [5] 99 % of control | [6] 95 % of control | [7] 99 % of control | [8] 98 % of control

c1ccc2c(c1)c1cccc3sc4cccc2c4c31
inactive: [9] 99 % of control | dose: 100.0 mg/kg/injection, schedule: Q01DX005 (ip), vehicle: saline with Tween-80 96 % of control | dose: 200.0 mg/kg/injection, schedule: Q01DX005 (ip), vehicle: saline with Tween-80 92 % of control

CCS
inactive: [10] 86 % of control | [11] 91 % of control | [12] 92 % of control | [13] 88 % of control

CCOC(=O)C1=Nc2ccccc2N=C(C2C(=O)C=C(C)OC2=O)C1 (configuration not stated)
inactive: dose: 100.0 mg/kg/injection, schedule: Q01DX001 (ip), vehicle: saline 108 % of control | dose: 200.0 mg/kg/injection, schedule: Q01DX001 (ip), vehicle: saline 104 % of control | dose: 400.0 mg/kg/injection, schedule: Q01DX001 (ip), vehicle: saline 103 % of control

CC1=C(CCCCCCCCCCCCCCC(C)O)C(=O)OC1=O (configuration not stated)
inactive: dose: 1.56 mg/kg/injection, schedule: Q01DX005 (ip), vehicle: Klucel (hydroxypropylcellulose) (HPC) 108 % of control | dose: 3.12 mg/kg/injection, schedule: Q01DX005 (ip), vehicle: Klucel (hydroxypropylcellulose) (HPC) 108 % of control | [14] 99 % of control | [4] 99 % of control | [6] 89 % of control | [7] 92 % of control | [8] 101 % of control | dose: 400.0 mg/kg/injection, schedule: Q01DX005 (ip), vehicle: Klucel (hydroxypropylcellulose) (HPC) 87 % of control

C=CCn1c(COc2c(I)cc(I)c3cccnc23)n[nH]c1=S
inactive: [14] 100 % of control and 96 % of control | [4] 108 % of control and 115 % of control | [5] 106 % of control | [6] 114 % of control

CC(Cl)CNCC(C)(C)C (configuration not stated)
inactive: [15] 100 % of control | [16] 99 % of control

c1ccc(NN=Nc2ncnc3nc[nH]c23)cc1
inactive: dose: 12.5 mg/kg/injection, schedule: Q01DX005 (ip), vehicle: saline with Tween-80 106 % of control | dose: 25.0 mg/kg/injection, schedule: Q01DX005 (ip), vehicle: saline with Tween-80 111 % of control | [9] 102 % of control and 115 % of control

COc1cc2cc(c1Cl)N(C)C(=O)CC(OC(=O)C(C)N(C)C(=O)C(C)C)C1(C)OC1C(C)C1CC(OC)(NC(=O)O1)C(OC)/C=C/C=C(C)C2OC (configuration not stated)
inactive: dose: 16.0 mg/kg/injection, schedule: Q01DX009 (ip), vehicle: saline 98 % of control | dose: 32.0 mg/kg/injection, schedule: Q01DX009 (ip), vehicle: saline 114 % of control | dose: 64.0 mg/kg/injection, schedule: Q01DX009 (ip), vehicle: saline 100 % of control | dose: 128.0 mg/kg/injection, schedule: Q01DX009 (ip), vehicle: saline 100 % of control | dose: 4.0 micrograms/kg/injection, schedule: Q01DX009 (ip), vehicle: saline 99 % of control | dose: 8.0 micrograms/kg/injection, schedule: Q01DX009 (ip), vehicle: saline 99 % of control | dose: 16.0 micrograms/kg/injection, schedule: Q01DX009 (ip), vehicle: saline 103 % of control | dose: 32.0 micrograms/kg/injection, schedule: Q01DX009 (ip), vehicle: saline 111 % of control

COC1=C(OC)C(=O)C2=C(OCCCCO2)C1=O
inactive: dose: 15.0 mg/kg/injection, schedule: Q01DX005 (ip), vehicle: saline with Tween-80 104 % of control | dose: 30.0 mg/kg/injection, schedule: Q01DX005 (ip), vehicle: saline with Tween-80 103 % of control | [17] 101 % of control and 107 % of control | [18] 100 % of control | [19] 99 % of control

CCCCCCCCCCCCCCCCSC1=CC(=O)C(OC)=C(OC)C1=O
inactive: dose: 2.0 mg/kg/injection, schedule: Q01DX009 (ip), vehicle: Klucel (hydroxypropylcellulose) (HPC) 97 % of control | dose: 8.0 mg/kg/injection, schedule: Q01DX009 (ip), vehicle: Klucel (hydroxypropylcellulose) (HPC) 98 % of control | dose: 16.0 mg/kg/injection, schedule: Q01DX009 (ip), vehicle: Klucel (hydroxypropylcellulose) (HPC) 100 % of control | dose: 32.0 mg/kg/injection, schedule: Q01DX009 (ip), vehicle: Klucel (hydroxypropylcellulose) (HPC) 105 % of control

CC(=O)N=C(N)N
inactive: dose: 50.0 mg/kg/injection, schedule: Q01DX009 (ip), vehicle: saline 103 % of control | dose: 100.0 mg/kg/injection, schedule: Q01DX009 (ip), vehicle: saline 100 % of control | dose: 200.0 mg/kg/injection, schedule: Q01DX009 (ip), vehicle: saline 99 % of control

CC/C(C)=N\Nc1cc(C)[nH]c(=O)c1
inactive: dose: 100.0 mg/kg/injection, schedule: Q01DX001 (ip), vehicle: saline with Tween-80 105 % of control | dose: 200.0 mg/kg/injection, schedule: Q01DX001 (ip), vehicle: saline with Tween-80 100 % of control | dose: 400.0 mg/kg/injection, schedule: Q01DX001 (ip), vehicle: saline with Tween-80 91 % of control

O=C1C2C3C4C5C(C2C5(Br)C32OCCO2)C14Br (configuration not stated)
inactive: dose: 100.0 mg/kg/injection, schedule: Q04DX003 (ip), vehicle: Klucel (hydroxypropylcellulose) (HPC) 106 % of control | dose: 200.0 mg/kg/injection, schedule: Q04DX003 (ip), vehicle: Klucel (hydroxypropylcellulose) (HPC) 107 % of control | dose: 400.0 mg/kg/injection, schedule: Q04DX003 (ip), vehicle: Klucel (hydroxypropylcellulose) (HPC) 113 % of control

CCC1(CC)C(=O)NC(=O)NC1(OC)OC
inactive: [15] 98 % of control | [16] 106 % of control | dose: 200.0 mg/kg/injection, schedule: Q01DX005 (ip), vehicle: saline 100 % of control

N#Cc1c[nH]n2ccnc12
inactive: dose: 60.0 mg/kg/injection, schedule: Q01DX005 (ip), vehicle: Klucel (hydroxypropylcellulose) (HPC) 101 % of control | dose: 120.0 mg/kg/injection, schedule: Q01DX005 (ip), vehicle: Klucel (hydroxypropylcellulose) (HPC) 101 % of control | dose: 240.0 mg/kg/injection, schedule: Q01DX005 (ip), vehicle: Klucel (hydroxypropylcellulose) (HPC) 105 % of control

COc1ccc(/C=C2\SC(=O)N(C)C2=O)cc1OC
inactive: [6] 88 % of control | [7] 89 % of control

CCC12CCCN3CCC4(c5cccc(O)c5NC4CC1)C32 (configuration not stated)
inactive: [1] 101 % of control | [2] 94 % of control | [3] 101 % of control

CC1(C)OC(=O)C(=Cc2ccc(C#N)cc2)C(=O)O1
inactive: [17] 108 % of control | [18] 102 % of control | [19] 111 % of control

COC1/C=C/OC2(C)Oc3c(C)c(O)c4c(O)c(c(/C=N/N5C(C)CN(Cc6ccc(NC(C)=O)cc6)CC5C)c(O)c4c3C2=O)NC(=O)C(C)=C/C=C/C(C)C(O)C(C)C(O)C(C)C(OC(C)=O)C1C (configuration not stated)
inactive: dose: 12.5 mg/kg/injection, schedule: Q01DX009 (ip), vehicle: suspension in saline 110 % of control | [10] 119 % of control | dose: 25.0 mg/kg/injection, schedule: Q01DX009 (ip), vehicle: suspension in saline 110 % of control | [11] 99 % of control | dose: 50.0 mg/kg/injection, schedule: Q01DX009 (ip), vehicle: suspension in saline 108 % of control | [12] 99 % of control and 103 % of control | dose: 100.0 mg/kg/injection, schedule: Q01DX009 (ip), vehicle: suspension in saline 99 % of control | [13] 110 % of control and 119 % of control
